{"source": "patent US9409968B2", "about": "“Toll-like receptor-based biosensors” (University of Massachusetts, priority 2009, dated 2016)", "origin": "cited, not measured here", "test_system": "lupus-prone mice", "settings": "administered to lupus-prone mice"}
{"substance": "5′-TGCTCCTGGAGGGGTTGT-3′ (listed as DNA, chemistry not given here) [IRS 954]", "values": [{"measurement": "autoantibody production", "result": "reduction of autoantibody production"}, {"measurement": "disease symptoms", "result": "amelioration of disease symptoms"}]}
